In patent US8697727B2, “N-substituted-heterocycloalkyloxybenzamide compounds and methods of use” (Rigel Pharmaceuticals, Inc., priority 2006, dated 2014):

How the values were obtained:
Format in all cases: cell-based
AMPK [1] = experiment: AMPK activation, enzyme-linked immunosorbent assay
Method in brief: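 AMPK activity in cells was measured by enzyme-linked immunosorbent assay as the relative concentration of phosphorylated acetyl-CoA carboxylase, which AMPK produces. From this, an EC50 for AMPK activation was determined for each compound. Ranges used: less than 1 μM, 1-10 μM, 10-20 μM, 20-50 μM, 50-100 μM, and >100 μM.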

AMPK [2] = experiment: Western blot assay for AMPK activity; conditions: gel electrophoresis data relative to GST-gAd (FIG. 3)
Description: Western blot assays for AMPK activity were performed on compounds 1, 2, 94 and 95. FIG. 3 presents gel electrophoresis data for compounds 1, 2, 94 and 95 relative to GST-gAd.

[3] = test system: Human liver cells (HepG2); experiment: Reduction of glycogen content in liver cells (Amplex Red); conditions: HepG2 cells treated for 16 hours, Amplex Red (FIG. 4)
Description: The ability of compounds of the present invention to reduce the glycogen content in liver cells was determined using a functional assay. Human liver cells (HepG2) were seeded in a 96 well plate and on the next day were treated with compounds 1, 2, 94 and 95 for 16 hours. The glycogen content of the cells was determined using Amplex Red.

Row | SMILES | EC50 (AMPK [1]) [nM] | IC50 value, glycogen content [3] | AMPK activity in the western blot assay (AMPK [2])
1 | COc1cc(C(=O)NCCCNC(=O)OC(C)(C)C)ccc1OC1CCN(Cc2ccc(C(F)(F)F)cc2)CC1 [Compound 94, tert-butyl 3-(3-methoxy-4-(1-(4-(trifluoromethyl)benzyl)piperidin-4-yloxy)benzamido)propylcarbamate] | < 1000 | sub-micromolar | strong activity
2 | CC(C)(C)OC(=O)NCCCNC(=O)c1ccc(OC2CCN(Cc3ccc(C(F)(F)F)cc3)CC2)cc1 [Compound 95, tert-butyl 3-(4-(1-(4-(trifluoromethyl)benzyl)piperidin-4-yloxy)benzamido)propylcarbamate] | < 1000 | sub-micromolar | strong activity
3 | CC(C)S(=O)(=O)N1CCC(NC(=O)c2ccc(OC3CCN(c4ccc(C(F)(F)F)cc4)CC3)c(F)c2)CC1 [Compound 34, 3-fluoro-N-(1-(isopropylsulfonyl)piperidin-4-yl)-4-(1-(4-(trifluoromethyl)phenyl)piperidin-4-yloxy)benzamide] | < 1000 | – | –
4 | O=C(NC1CCN(Cc2ccccc2)CC1)c1ccc(OC2CCN(Cc3ccc4c(c3)OCCO4)CC2)c(Cl)c1 [Compound 15, N-(1-benzylpiperidin-4-yl)-3-chloro-4-(1-((2,3-dihydrobenzo[b][1,4]dioxin-6-yl)methyl)piperidin-4-yloxy)benzamide] | < 1000 | – | –
5 | COc1cc(C(=O)NCCCN2CCOCC2)ccc1OC1CCN(Cc2ccc(Cl)cc2)CC1 [Compound 98] | 1000 to 10000 | – | –
6 | CC(C)(C)OC(=O)NCCCNC(=O)c1ccc(OC2CCN(Cc3ccccc3)CC2)c(Cl)c1 [Compound 102, tert-butyl 3-(4-(1-benzylpiperidin-4-yloxy)-3-chlorobenzamido)propylcarbamate] | 10000 to 20000 | – | –

Second part, led by results:

Row | EC50 (AMPK [1]) [nM] | IC50 value, glycogen content [3] | SMILES | AMPK activity in the western blot assay (AMPK [2])
7 | < 1000 | sub-micromolar | COc1cc(C(=O)NC2CCN(Cc3ccccc3)CC2)ccc1OC1CCN(Cc2ccccc2)CC1 [Compound 2, N-(1-benzylpiperidin-4-yl)-4-(1-benzylpiperidin-4-yloxy)-3-methoxybenzamide] | strong activity
8 | < 1000 | sub-micromolar | COc1ccc(CN2CCC(Oc3ccc(C(=O)NC4CCN(Cc5ccccc5)CC4)cc3Cl)CC2)cc1 [Compound 1, N-(1-benzylpiperidin-4-yl)-3-chloro-4-(1-(4-methoxybenzyl)piperidin-4-yloxy)benzamide] | strong activity
9 | 20000 to 50000 | – | COc1cc(C(=O)NC2CCN(Cc3ccccc3)CC2)ccc1OC1CCN(S(C)(=O)=O)CC1 [Compound 9, N-(1-benzylpiperidin-4-yl)-3-methoxy-4-(1-(methylsulfonyl)piperidin-4-yloxy)benzamide] | –
10 | < 1000 | – | O=C(NC1CCN(Cc2ccccc2)CC1)c1ccc(OC2CCN(Cc3ccncc3)CC2)c(Cl)c1 [Compound 6, N-(1-benzylpiperidin-4-yl)-3-chloro-4-(1-(pyridin-4-ylmethyl)piperidin-4-yloxy)benzamide] | –
11 | 1000 to 10000 | – | CN1CCC(NC(=O)c2ccc(OC3CCN(Cc4ccc(C(F)(F)F)cc4)CC3)c(Cl)c2)CC1 [Compound 58, 3-chloro-N-(1-methylpiperidin-4-yl)-4-(1-(4-(trifluoromethyl)benzyl)piperidin-4-yloxy)benzamide] | –
12 | 1000 to 10000 | – | N#Cc1ccc(N2CCC(Oc3cccc(C(=O)NC4CCN(Cc5ccncc5)CC4)c3)CC2)cc1 [Compound 88, N-(1-(pyridin-4-ylmethyl)piperidin-4-yl)-3-(1-(4-cyanophenyl)piperidin-4-yloxy)benzamide] | –
13 | < 1000 | – | O=C(NC1CCN(Cc2ccccc2)CC1)c1ccc(OC2CCN(Cc3ccc(Cl)c(Cl)c3)CC2)c(F)c1 [Compound 82, N-(1-benzylpiperidin-4-yl)-4-(1-(3,4-dichlorobenzyl)piperidin-4-yloxy)-3-fluorobenzamide] | –
14 | < 1000 | – | O=C(NC1CCN(Cc2ccncc2)CC1)c1cccc(OC2CCN(c3ccc(C(F)(F)F)cc3)CC2)c1 [Compound 87, N-(1-(pyridin-4-ylmethyl)piperidin-4-yl)-3-(1-(4-(trifluoromethyl)phenyl)piperidin-4-yloxy)benzamide] | –
